Common to all, as to test: growth of human tumour cells (NCI), 48 h
Test [1] has as its system RXF 393 renal.
Test [2] relates to UACC-257 melanoma.
The subject of test [3] is TK-10 renal.
Test [4] has as its system MDA-MB-231 breast.
Test [5] deals with COLO 205 colon.
In test [6] the test system is IGROV1 ovarian.
The subject of test [7] is MDA-N.
The subject of test [8] is LOX IMVI melanoma.
In test [9] the test system is SK-MEL-2 melanoma.
Test [10] has as its system MDA-MB-435.

The structures appear in SMILES notation. Values joined by “and” are separate entries in the source; they are usually repeats but may differ in a detail not shown here. Identical values can stand only once.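 These data come from cells grown in 96-well plates and exposed to compound for 48 hours at five concentrations. GI50 = concentration required for 50% inhibition of growth. At the TGI there is no net growth.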

Take `CC(=O)Oc1ccc(-c2c(OC(C)=O)c(OC(C)=O)c(-c3ccc(OC(C)=O)c(OC(C)=O)c3)c(OC(C)=O)c2OC(C)=O)cc1`: the TGI came to 36.1 µM in test [1]; 29.1 µM in test [2]; 29.6 µM in test [3]; 35.4 µM in test [4]; 32 µM in [5]; 28.8 µM in test [6]. Besides, the TGI in [7] came to 31.5 µM; in test [8], 31.8 µM; in [9], 29.9 µM; in test [10], 31.7 µM.
Regarding `C1CN(C23OC4(N5CCOCC5)C5C6CC(C7C6C4C72)C53)CCO1` (centres undefined), the TGI in test [1], in test [2], in [3], in [4], in test [5] and in test [6] was more than 100 µM throughout. In addition, the TGI in test [7], in test [8], in test [9] and in test [10] was more than 100 µM throughout.
As to `CCSc1nn(-c2c3ccccc3nc3ccccc23)c(=S)s1`, the TGI in test [1], in test [2], in [3], in test [4], in [5] and in test [6] was more than 100 µM throughout. Moreover, the TGI in [7], in test [8], in [9] and in [10] was more than 100 µM throughout.
On to `CN(CCc1ccccn1)C(=S)N/N=C/c1ccccn1`, for which the TGI in [1] turned out to be 2.98 µM; in test [2] it was 0.895 µM; in test [3], 0.668 µM; in test [4] it was 0.982 µM; in test [5], 0.727 µM; in test [6] it was 1.21 µM. In addition, the TGI came out at 37.4 µM in test [7], 13.6 µM in test [8], 0.27 µM in [9] and 38.1 µM in test [10].
For the compound `CC(CN(C)C)C(O)(c1ccccc1)c1ccccc1` (centres undefined), the TGI in test [1], in [2], in test [3], in [4], in test [5] and in test [6] was more than 100 µM each time. The TGI in test [7], in test [8], in [9] and in [10] was more than 100 µM throughout.
As to `CCOC(=O)c1c(C)n(CCN2CCN(C)CC2)c2ccc(OC)cc12`, the TGI in [1] was more than 100 µM; in test [2], 31.1 µM; in test [3], more than 100 µM; in [4], more than 100 µM; in test [5], 31.6 µM; in [6], more than 100 µM. The TGI in [7] stood at 39.4 µM; in test [8], 35.1 µM; in test [9], 35.3 µM; in test [10] it was 56.2 µM.
In the case of `CCCNC(=O)Cn1c(-c2ccccc2)cc2ccccc21`, the TGI in test [1] is 57.3 µM; in [2], more than 100 µM; in test [3], more than 100 µM; in [4] it was more than 100 µM; in test [5] it was more than 100 µM; in [6], more than 100 µM. In addition, the TGI in test [7], in test [8], in test [9] and in test [10] was more than 100 µM each time.
In the case of `NC(=O)CN1CCN(c2nc(N3CCCC3)c3nc(Cl)c(NCc4ccccc4)nc3n2)CC1`, the TGI came out at 16.2 µM in test [1]; 19.7 µM in test [2]; 34.7 µM in test [3]; 20.6 µM in test [4]; 15.8 µM in test [5]; 25.5 µM in [6]. The TGI was 16.4 µM in test [7], 16.5 µM in test [8], 17.3 µM in test [9] and 20.5 µM in test [10].
As for `C[C@@H](CC(O)C(O)C(C)(C)O)C1CCC23CC12CCC1[C@@]2(C)CCC(=O)C(C)(C)C2CC(OC2OC(CO)C(O)C(O)C2O)[C@]13C` (some centres undefined), the TGI in [1], in test [3], in test [4], in [5], in test [6] and in test [7] was more than 10 µM in each case. The TGI in test [8], in test [9] and in [10] was more than 10 µM in each case.
Consider `Clc1cccc(Cl)c1C1ON=C(c2ccccc2)N1C12CC3CC(CC(C3)C1)C2` (centres undefined), for which the TGI in test [1] is more than 100 µM; in test [2], 15.1 µM; in test [3], more than 100 µM; in test [4] it was more than 100 µM; in test [5], 30.5 µM; in test [6], more than 100 µM. In addition, the TGI in [7] is more than 100 µM; in test [8], 63.7 µM; in [9], 71 µM; in [10], more than 100 µM.
For `CCCS(=O)OC1C(C2COC(C)(C)O2)OC2OC(C)(C)OC21` (centres undefined), the TGI was found to be 25.5 µM in [1]; 28.2 µM in test [2]; 31.3 µM in test [3]; 32.6 µM in test [4]; 27.2 µM in test [5]; 33.2 µM in test [6]. Further, the TGI in [7] is more than 70.6 µM; in [8] it was 21.4 µM; in [9], 37.4 µM; in test [10], 23.4 µM.
For the compound `CCCCC[C@@H]1OC(=O)[C@@]2(CC3c4ccccc4C2c2ccccc23)[C@H]1C(=O)OC`, the TGI was more than 100 µM in test [1]; 86.4 µM in test [2]; more than 100 µM in [3]; more than 100 µM in [4]; 30.5 µM in test [5]; more than 100 µM in test [6]. Besides, the TGI in test [7], in [8], in test [9] and in test [10] was more than 100 µM throughout.
With `C=C1C(=O)O[C@H]2[C@@H](O)[C@H](C)CCC/C(C)=C/CC[C@@]3(C)O[C@@H]3C[C@@H]12`, the TGI worked out at 16.4 µM in [1]; 22.4 µM in test [2]; 3.95 µM in [3]; 31.7 µM in test [4]; 12.3 µM in test [5]; 15.6 µM in [6]. Moreover, the TGI in test [7] was found to be 25.6 µM; in test [8] it was 19.3 µM; in test [9], 48.9 µM; in [10], 29.5 µM.
In the case of `Cc1nc2ccccc2n1CCc1nc2ccccc2[nH]1`, the TGI in test [1], in test [2], in [3], in test [4], in test [5] and in [6] was more than 100 µM each time. Further, the TGI in test [7], in test [8], in [9] and in [10] was more than 100 µM in each case.
For the compound `C[N+](C)(C)c1nc(N)nc2c1ncn2C1OC(CO)C(O)C1O` (centres undefined), the TGI in [1], in [2], in [3], in [4], in test [5] and in test [6] was more than 100 µM each time. In addition, the TGI in test [7], in test [8], in test [9] and in test [10] was more than 100 µM each time.
For `NC(=S)NS(=O)(=O)c1ccc(Cl)cc1Cl`, the TGI in test [1], in [2], in [3], in test [4], in [5] and in test [6] was more than 100 µM each time. Moreover, the TGI in test [7], in test [8], in test [9] and in test [10] was more than 100 µM each time.
In the case of `Cc1ccc(N=Nc2cc(=O)[nH]c(=O)[nH]2)cc1C`, the TGI was 24.9 µM in [1]; 28.7 µM in test [2]; 34.3 µM in test [3]; 24.2 µM in test [4]; 19.9 µM in [5]; 26.9 µM in test [6]. The TGI in test [7] turned out to be 24.7 µM; in test [8], 3.36 µM; in test [10], 26.8 µM.
In the case of `COC(=O)[C@]12CCC(=O)N1[C@H](C(=O)O)Cc1c2[nH]c2ccccc12`, the TGI in [1], in test [2], in test [3], in test [4], in test [5] and in [6] was more than 100 µM in each case. The TGI in test [7], in [8], in test [9] and in test [10] was more than 100 µM throughout.
Turning to `CC(C)=CCC/C(C)=C/CCC1(C)C2COC(=O)C21` (centres undefined), the TGI in [1], in test [2], in [3], in test [4], in test [5] and in [6] was more than 100 µM throughout. Further, the TGI in test [7] was more than 100 µM; in [8] it was 89 µM; in [9], more than 100 µM; in test [10], more than 100 µM.
Consider `Cc1ccc2c3ccc4c(c3n(C)c2c1)C(=O)C=CC4=O`, for which the TGI in [1] is more than 7.63 µM; in test [2], more than 10 µM; in test [3], more than 10 µM; in test [4] it was more than 10 µM; in test [5] it was 5.51 µM; in test [6] it was more than 10 µM. For the same compound, the TGI in [7], in test [8], in test [9] and in [10] was more than 10 µM each time.
Take `CN(C)CCCN1C(=O)N(CCCN(C)C)c2c3cc(O)ccc3nc3c([N+](=O)[O-])ccc1c23`: the TGI in [1] was 25.1 µM; in test [2] it was more than 100 µM; in test [3] it was more than 100 µM; in test [4], 28.3 µM; in [5] it was 27.5 µM; in test [6], 21.3 µM. Moreover, the TGI in [7] is more than 100 µM; in [8], 26.6 µM; in test [9] it was 29.8 µM; in test [10] it was 36.2 µM.
`Nc1ncnc2c(C3OC(CO)C(O)C3O)c[nH]c12` (centres undefined): the TGI in [1] is 0.126 µM and 0.0746 µM; in test [2], 0.276 µM and 0.382 µM; in [3], 0.471 µM; in [4], more than 100 µM; in [6], 0.0637 µM and 0.0661 µM; in test [7] it was 0.158 µM and 0.138 µM. Moreover, the TGI in test [8] is 0.0274 µM and < 0.0155 µM; in [9], 0.0101 µM and < 0.0304 µM; in test [10] it was 0.182 µM and 0.125 µM. Besides, the GI50 is less than 15.5 nM in [2], 16.3 nM in [3], 19.3 nM in [5] and 1.79 nM in test [9].
As to `Oc1cc(Br)cc2cc(Br)cnc12`, the TGI in test [1] is 10.9 µM; in test [2] it was more than 100 µM; in [3], more than 100 µM; in test [4], 88.2 µM; in test [5], more than 100 µM; in test [6] it was 12.6 µM. The TGI in [7], in test [8] and in test [10] was more than 100 µM each time.
As for `COC(=O)C1CC(C=O)=C(SC)N1` (centres undefined), the TGI in [1], in [2], in test [3], in [4], in [5] and in test [6] was more than 50 µM throughout. The TGI in test [7], in test [9] and in test [10] was more than 50 µM throughout.
For `O=c1oc2ccccc2cc1-c1nc2ccccc2s1`, the TGI is 24.2 µM in [1]; 33.5 µM in test [3]; 27.6 µM in test [4]; 18.6 µM in test [6]; more than 61.1 µM in [7]; 24.2 µM in test [8]. For the same compound, the values for the TGI in test [9] and in test [10] were 60.2 µM and 18.1 µM, respectively.
In the case of `N#Cc1nc(Cc2cccs2)oc1N`, the TGI in test [1], in test [2], in test [3], in test [4], in [6] and in test [7] was more than 100 µM in each case. The TGI in test [8], in test [9] and in [10] was more than 100 µM throughout.
Consider `OCC(CO)CC1COc2ccccc2O1` (centres undefined), for which the TGI in test [1], in [3], in test [4], in [5], in test [6] and in test [7] was more than 10 µM in each case. In addition, the TGI in [8], in test [9] and in [10] was more than 10 µM each time.
Turning to `CC(=O)Nc1oc(C)nc1C#N`, the TGI in [1], in test [2], in test [3], in test [4], in test [6] and in test [7] was more than 100 µM throughout. Further, the TGI in test [8], in test [9] and in test [10] was more than 100 µM each time.

Source of the values: PubChem BioAssay (NCI).
